The test system of the first experiment is HT-1080 (ATCC, CCL-121) cells. Briefly: HT-1080 cell viability assay with ferroptosis inducer RSL3 (Cell Titer-Glo). Conditions: HT-1080 cells treated with RSL3; 3-fold, 10-point dilution, 1.1 μM highest concentration; Table 3; read-out: EC50 (nM), ferroptosis inhibitory activity. It counts as cell-based. An outline of the steps:
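HT-1080 cells (6000 per well) were cultured overnight at 37 °C, then co-treated with RSL3 and compound in a 3-fold, 10-point series topping at 1.1 μM. Viability was read by CellTiter-Glo luminescence and normalized to untreated controls. EC50 came from a sigmoidal non-linear regression fit.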
Consider `Cc1cc(N2CCC(C(F)(F)F)C2)ccc1Nc1ccc2c(c1)OCC(=O)N2` (stereo not drawn) [Compound 588, 7-((2-methyl-4-(3-(trifluoromethyl)pyrrolidin-1-yl)phenyl)amino)-2H-benzo[b][1,4]oxazin-3(4H)-one], for which the EC50 lay in the range of 0.1 to 100 nM. Still for that read-out and setting: for `Cc1cc(Nc2ccc3c(c2)OCC(=O)N3CCO)ccc1N1CC(C)OC(C)C1` (stereo not drawn) [Compound 461, 7-((4-(2,6-dimethylmorpholino)-3-methylphenyl)amino)-4-(2-hydroxyethyl)-2H-benzo[b][1,4]oxazin-3(4H)-one] the value was 0.1 to 100 nM.

The same experiment, now with this note: Homo sapiens; HT-1080 cells treated with RSL3; 3-fold, 10-point dilution, 1.1 μM highest concentration; Table 2; read-out: EC50 (nM), ferroptosis inhibitory activity.
With `COCCOc1ccc(Nc2ccc3c(c2)CN(C)C3=O)cc1` [Compound 237, 5-((4-(2-methoxyethoxy)phenyl)amino)-2-methylisoindolin-1-one], the EC50 lay in the range of 0.1 to 100 nM.

Turning to `CC(=O)Nc1nn(C)c2ccc(Nc3ccc(N4CCC(C)CC4)cc3)cc12` [Compound 356, N-(1-methyl-5-((4-(4-methylpiperidin-1-yl)phenyl)amino)-1H-indazol-3-yl) acetamide], the EC50 fell in the range of 0.1 to 100 nM.

Take `CN1C(=O)NCc2cc(Nc3ccc(N4CCC(C(F)(F)F)CC4)cc3)ccc21` [Compound 137, 1-methyl-6-((4-(4-(trifluoromethyl)piperidin-1-yl)phenyl)amino)-3,4-dihydroquinazolin-2(1H)-one]: the EC50 fell in the range of 0.1 to 100 nM.

With `CN1C(=O)COc2cc(Nc3ccc4c(c3)CCC4(C)C)ccc21` [Compound 42, 7-((1,1-dimethyl-2,3-dihydro-1H-inden-5-yl)amino)-4-methyl-2H-benzo[b][1,4]o xazin-3(4H)-one], the EC50 fell in the range of 0.1 to 100 nM.

With `CCN(CC)c1ccc(Nc2ccc3c(c2)OCC(=O)N3C)cc1` [Compound 22, 7-((4-(diethylamino)phenyl)amino)-4-methyl-2H-benzo[b][1,4]oxazin-3(4H)-one], the EC50 was 0.1 to 100 nM. On to `CC1CCCCN1c1ccc(Nc2ccc3c(c2)CN(C)C3=O)cc1` (stereo not drawn) [Compound 240, 2-methyl-5-((4-(2-methylpiperidin-1-yl)phenyl)amino)isoindolin-1-one], for which the EC50 was in the range of 0.1 to 100 nM. The same measure, in the same setting: for `CC1CN(c2ccc(Nc3ccc4c(c3)OC(C)C(=O)N4)cc2)CC(C)O1` (stereo not drawn) [Compound 139, 7-((4-(2,6-dimethylmorpholino)phenyl)amino)-2-methyl-2H-benzo[b][1,4]oxazin-3(4H)-one] the value was 0.1 to 100 nM. The same measure, in the same setting: under `CC1CN(c2ccc(Nc3ccc4c(c3)OCC(=O)N4C)cc2)CCO1` (stereo not drawn) [Compound 149, 4-methyl-7-((4-(2-methylmorpholino)phenyl)amino)-2H-benzo[b][1,4]oxazin-3(4H)-one] stands 0.1 to 100 nM. On the same count and under the same terms, under `Cn1c(=O)oc2ccc(Nc3cnc(N4CCC(C(F)(F)F)CC4)c(F)c3)cc21` [Compound 388, 5-((5-fluoro-6-(4-(trifluoromethyl)piperidin-1-yl)pyridin-3-yl)amino)-3-methylbenzo[d]oxazol-2(3H)-one] stands 0.1 to 100 nM; under `Cc1cc2c(C)cc(=O)oc2cc1Nc1ccc(N2CCC(C(F)(F)F)CC2)cc1` [Compound 126, 4,6-dimethyl-7-((4-(4-(trifluoromethyl)piperidin-1-yl)phenyl)amino)-2H-chromen-2-one], 0.1 to 100 nM; under `CCCCCOc1ccc(Nc2ccc3c(c2)OCC(=O)N3C)cc1OC` [Compound 32, 7-((3-methoxy-4-(pentyloxy)phenyl)amino)-4-methyl-2H-benzo[b][1,4]oxazin-3(4H)-one], 0.1 to 100 nM. Turning to `Cc1cc(N2CC(C)OC(C)C2)ccc1Nc1ccc2c(c1)c(C(N)=O)cn2C` (stereo not drawn) [Compound 444, 5-((4-(2,6-dimethylmorpholino)-2-methylphenyl)amino)-1-methyl-1H-indole-3-carboxamide], the EC50 lay within 0.1 to 100 nM.

Take `CC1CN(c2ccc(Nc3ccc4c(c3)OCC(=O)N4C)cc2)CC(C)O1` (stereo not drawn) [Compound 44, 7-((4-(2,6-dimethylmorpholino)phenyl)amino)-4-methyl-2H-benzo[b][1,4]oxazin-3(4H)-one]: the EC50 is 0.1 to 100 nM. Still for that read-out and setting: under `CN1C(=O)COc2ccc(Nc3ccc(N4CCC(C(F)(F)F)CC4)cc3)cc21` [Compound 28, 4-methyl-6-((4-(4-(trifluoromethyl)piperidin-1-yl)phenyl)amino)-2H-benzo[b][1,4]oxazin-3(4H)-one] stands 0.1 to 100 nM; under `COCCOCCN1Cc2cc(Nc3ccc(N4CCC(C(F)(F)F)CC4)cc3)ccc2C1=O` [Compound 198, 2-(2-(2-methoxyethoxy)ethyl)-5-((4-(4-(trifluoromethyl)piperidin-1-yl)phenyl)amino)isoindolin-1-one], 0.1 to 100 nM; under `CC1CCN(c2c(F)cc(Nc3ccc4c(c3)n(C)c(=O)n4C)cc2F)CC1` [Compound 274, 5-((3,5-difluoro-4-(4-methylpiperidin-1-yl)phenyl)amino)-1,3-dimethyl-1,3-dihydro-2H-benzo[d]imidazol-2-one], 0.1 to 100 nM. On the same count and under the same terms, for `CC(C)(C)c1ccc(Nc2ccc3cc(CCN)c(=O)oc3c2)cc1` [Compound 124, 3-(2-aminoethyl)-7-((4-(tert-butyl)phenyl)amino)-2H-chromen-2-one] the value was 0.1 to 100 nM; for `NCCc1cc2ccc(Nc3ccc(N4CCC(C(F)(F)F)CC4)cc3)cc2oc1=O` [Compound 125, 3-(2-aminoethyl)-7-((4-(4-(trifluoromethyl)piperidin-1-yl)phenyl)amino)-2H-chromen-2-one], 0.1 to 100 nM; for `Cn1c(=O)n(C)c2cc(Nc3ccc(-n4ccnc4)cc3)ccc21` [Compound 305, 5-((4-(1H-imidazol-1-yl)phenyl)amino)-1,3-dimethyl-1,3-dihydro-2H-benzo[d]imidazol-2-one], 100 to 1000 nM.

With `CC1CN(c2ccc(Nc3ccc4c(c3)OCC(=O)N4C)c(F)c2)CC(C)O1` (stereo not drawn) [Compound 74, 7-((4-(2,6-dimethylmorpholino)-2-fluorophenyl)amino)-4-methyl-2H-benzo[b][1,4]oxazin-3(4H)-one], the EC50 was in the range of 0.1 to 100 nM.

Regarding `Cc1cc(=O)oc2cc(Nc3ccc(C(C)(C)C)cc3)ccc12` [Compound 118, 7-((4-(tert-butyl)phenyl)amino)-4-methyl-2H-chromen-2-one], the EC50 is 0.1 to 100 nM. Still for that read-out and setting: under `CN1Cc2cc(Nc3ccc(N4CCCC(C(F)(F)F)C4)cc3)ccc2C1=O` (stereo not drawn) [Compound 242, 2-methyl-5-((4-(3-(trifluoromethyl)piperidin-1-yl)phenyl)amino) isoindolin-1-one] stands 0.1 to 100 nM; under `Cc1c(Nc2ccc3c(c2)OCC(=O)N3C)ccc(N2CCC(C(F)(F)F)CC2)c1F` [Compound 63, 7-((3-fluoro-2-methyl-4-(4-(trifluoromethyl)piperidin-1-yl)phenyl)amino)-4-methyl-2H-benzo[b][1,4]oxazin-3(4H)-one], 0.1 to 100 nM.

Staying with this experiment, now noted: Homo sapiens; HT-1080 cells treated with RSL3; 3-fold, 10-point dilution, 1.1 μM highest concentration; Table 3; read-out: EC50 (nM), ferroptosis inhibitory activity.
As for `Cc1cc(N2CCC(C(F)(F)F)CC2)ccc1Nc1ccc2c(c1)COC(=O)N2` [Compound 539, 6-((2-methyl-4-(4-(trifluoromethyl)piperidin-1-yl)phenyl)amino)-1,4-dihydro-2H-benzo[d][1,3]oxazin-2-one], the EC50 lay in the range of 0.1 to 100 nM. Same read-out and setting: for `Cc1cc(N2CCC(C(F)(F)F)CC2)ccc1Nc1ccc2c(c1)C(C)(C)C(=O)N2` [Compound 514, 3,3-dimethyl-5-((2-methyl-4-(4-(trifluoromethyl)piperidin-1-yl)phenyl)amino)indolin-2-one] the value was 0.1 to 100 nM.

The values above are taken from patent US20240327393A1 (SIRONAX LTD., priority 2021, published 2024).
